The values that follow come from patent publication US20250122208A1, “CHEMOKINE RECEPTOR MODULATORS AND USES THEREOF” (RAPT THERAPEUTICS, INC., priority 2023, published 2025).

The target in this test is T1, CCR4 receptor (Homo sapiens, UniProt P51679).
T1 construct: beta-galactosidase enzyme-fragment tag; From own knowledge, PathHunter uses a ProLink/enzyme-donor fragment, usually at the receptor's C-terminus; expressed in transfected cells; host or cells: CHO-K1
T1 sequence (P51679 1-360): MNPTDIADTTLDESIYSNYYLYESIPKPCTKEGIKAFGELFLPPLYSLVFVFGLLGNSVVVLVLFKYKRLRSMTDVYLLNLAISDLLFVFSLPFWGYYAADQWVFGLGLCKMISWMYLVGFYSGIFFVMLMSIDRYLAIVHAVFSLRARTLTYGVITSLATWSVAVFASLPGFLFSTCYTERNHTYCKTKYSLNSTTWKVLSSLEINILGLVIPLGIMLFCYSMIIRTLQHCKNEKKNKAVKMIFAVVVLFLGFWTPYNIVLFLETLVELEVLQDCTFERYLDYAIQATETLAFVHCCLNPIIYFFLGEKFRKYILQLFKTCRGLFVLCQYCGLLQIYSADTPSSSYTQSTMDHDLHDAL
As to the kind of experiment: CCR4 antagonist activity in Beta-Arrestin Cellular Assay (PathHunter, CCL22 challenge). Type of test: cell-based. Conditions: CHO-K1 cells expressing the CCR4 receptor; CCL22 at EC80 (15 nM), 90 minutes; 30 min pre-incubation; read-out: Potency (CCR4 antagonist IC50 in the β-arrestin assay). As for the experimental part:
Example 39. Determination of CCR4 antagonist activity in Beta-Arrestin Cellular Assay
CCR4 Antagonistic Activity was assessed in Beta-Arrestin Cellular Assay. Compounds were assessed in CHO-K1 cells expressing the CCR4 receptor modified to enable β-glactosidase detection of β-arrestin agonist activity stimulated by CCL22 in a chemiluminescence assay. Cells were seeded in a total volume of 20 μL into white walled, 384-well microplates and incubated at 37° C. prior to testing. Cells were pre-incubated with test compound for 30 min at 37° C. followed by agonist challenge with CCL22 at the EC80 concentration (15 nM) for 90 minutes. Assay signal was generated through a single addition of 12.5 or 15 μL ([…]) of PathHunter Detection reagent cocktail, followed by a one-hour incubation at room temperature. Microplates were read following signal generation with a PerkinElmer Envision™ instrument for chemiluminescent signal detection. Antagonist activity was analyzed using CBIS data analysis suite (ChemInnovation, CA). Antagonist activity was characterized as percentage inhibition calculated using the following formula:
An IC50 of >500 nM is designated as Potency C, an IC50 of between 500 nM and 100 nM is designated as Potency B and an IC50 of <100 nM is designated as Potency A.
As a reminder, the IC50 is the concentration needed to halve the response being measured. In the case of `C[C@@H](Nc1cc(N2CCC([C@H]3CCCN([C@H]4C[C@](C)(C(=O)O)C4)C3)CC2)nc2ccnn12)c1ccc(Cl)cc1Cl` [Example 24, (1R,3r)-3-((R)-1′-(7-(((R)-1-(2,4-dichlorophenyl)ethyl)amino)pyrazolo[1,5-a]pyrimidin-5-yl)-[3,4′-bipiperidin]-1-yl)-1-methylcyclobutane-1-carboxylic acid], the IC50 was under 100 nM.
For the molecule `C[C@@H](Nc1cc(N2CCC([C@H]3CCCN([C@H]4C[C@](C)(C(=O)O)C4)C3)CC2)nc2ncnn12)c1ccc(F)cc1F` [Example 35, (1R,3r)-3-((R)-1′-(7-(((R)-1-(2,4-difluorophenyl)ethyl)amino)-[1,2,4]triazolo[1,5-a]pyrimidin-5-yl)-[3,4′-bipiperidin]-1-yl)-1-methylcyclobutane-1-carboxylic acid], the IC50 was in the range of 100 to 500 nM.
As to `COCCN1CCC[C@H](C2CCN(c3cc(N[C@H](C)c4ccc(Cl)cc4Cl)n4ncnc4n3)CC2)C1` [Example 11, N-((R)-1-(2,4-dichlorophenyl)ethyl)-5-((R)-1-(2-methoxyethyl)-[3,4′-bipiperidin]-1′-yl)-[1,2,4]triazolo[1,5-a]pyrimidin-7-amine], the IC50 is under 100 nM.
Regarding `C[C@@H](Nc1cc(N2CCC([C@H]3CCCN(C4CC(S(C)(=O)=O)C4)C3)CC2)nc2ncnn12)c1ccc(Cl)cc1Cl` (mixture of isomers) [Example 21, N-((R)-1-(2,4-dichlorophenyl)ethyl)-5-((R)-1-(3-(methylsulfonyl)cyclobutyl)-[3,4′-bipiperidin]-1′-yl)-[1,2,4]triazolo[1,5-a]pyrimidin-7-amine], the IC50 was under 100 nM.
`C[C@@H](Nc1cc(N2CCC([C@H]3CCCN(Cc4nn[nH]n4)C3)CC2)nc2ncnn12)c1ccc(Cl)cc1Cl` [Example 2, 5-((R)-1-((2H-tetrazol-5-yl)methyl)-[3,4′-bipiperidin]-1′-yl)-N-((R)-1-(2,4-dichlorophenyl)ethyl)-[1,2,4]triazolo[1,5-a]pyrimidin-7-amine]: the IC50 was under 100 nM.
As for `Cc1cc(F)ccc1[C@@H](C)Nc1cc(N2CCC([C@H]3CCCN([C@H]4C[C@](C)(C(=O)O)C4)C3)CC2)nc2ccnn12` [Example 29, (1R,3r)-3-((R)-1′-(7-(((R)-1-(4-fluoro-2-methylphenyl)ethyl)amino)pyrazolo[1,5-a]pyrimidin-5-yl)-[3,4′-bipiperidin]-1-yl)-1-methylcyclobutane-1-carboxylic acid], the figure is under 100 nM; as for `Cc1cc(Cl)ccc1[C@@H](C)Nc1cc(N2CCC([C@H]3CCCN([C@H]4C[C@](C)(C(=O)O)C4)C3)CC2)nc2ncnn12` [Example 33, (1R,3r)-3-((R)-1′-(7-(((R)-1-(4-chloro-2-methylphenyl)ethyl)amino)-[1,2,4]triazolo[1,5-a]pyrimidin-5-yl)-[3,4′-bipiperidin]-1-yl)-1-methylcyclobutane-1-carboxylic acid], 100 to 500 nM.
Take `C[C@@H](Nc1cc(N2CCC([C@H]3CCCN(CCS(N)(=O)=O)C3)CC2)nc2ncnn12)c1ccc(Cl)cc1Cl` [Example 19, 2-((R)-1′-(7-(((R)-1-(2,4-dichlorophenyl)ethyl)amino)-[1,2,4]triazolo[1,5-a]pyrimidin-5-yl)-[3,4′-bipiperidin]-1-yl)ethane-1-sulfonamide]: the half-maximal inhibitory concentration (IC50) was under 100 nM.
On to `C[C@@H](Nc1cc(N2CCC([C@H]3CCCN([C@H]4C[C@](C)(C(=O)O)C4)C3)CC2)nc2ccnn12)c1ccc(F)cc1F` [Example 34, (1R,3r)-3-((R)-1′-(7-(((R)-1-(2,4-difluorophenyl)ethyl)amino)pyrazolo[1,5-a]pyrimidin-5-yl)-[3,4′-bipiperidin]-1-yl)-1-methylcyclobutane-1-carboxylic acid], for which the half-inhibitory concentration (IC50) is under 100 nM.
With `CNS(=O)(=O)CCCN1CCC[C@H](C2CCN(c3cc(N[C@H](C)c4ccc(Cl)cc4Cl)n4ncnc4n3)CC2)C1` [Example 20, 3-((R)-1′-(7-(((R)-1-(2,4-dichlorophenyl)ethyl)amino)-[1,2,4]triazolo[1,5-a]pyrimidin-5-yl)-[3,4′-bipiperidin]-1-yl)-N-methylpropane-1-sulfonamide], the IC50 is under 100 nM.
On to `C[C@@H](Nc1cc(N2CCC(C3CCCN(CCO)C3)C2)nc2ncnn12)c1ccc(Cl)cc1Cl` (single isomer, unassigned) [Example 23b], for which the half-inhibitory concentration (IC50) was under 100 nM.
For `C[C@@H](Nc1cc(N2CCC([C@H]3CCCN([C@H]4C[C@](C)(C(=O)O)C4)C3)CC2)nc2ncnn12)c1ccc(Cl)cc1Cl` [Example 18, (1R,3r)-3-((R)-1′-(7-(((R)-1-(2,4-dichlorophenyl)ethyl)amino)-[1,2,4]triazolo[1,5-a]pyrimidin-5-yl)-[3,4′-bipiperidin]-1-yl)-1-methylcyclobutane-1-carboxylic acid], the IC50 was in the range of 100 to 500 nM.
As to `C[C@@H](Nc1cc(N2CCC([C@H]3CCCN(CCCO)C3)CC2)nc2ncnn12)c1ccc(Cl)cc1Cl` [Example 22, 3-((R)-1′-(7-(((R)-1-(2,4-dichlorophenyl)ethyl)amino)-[1,2,4]triazolo[1,5-a]pyrimidin-5-yl)-[3,4′-bipiperidin]-1-yl)propan-1-ol], the half-maximal inhibitory concentration (IC50) is under 100 nM.
As for `C[C@@H](Nc1cc(N2CCC([C@H]3CCCN(C4CCCC4)C3)CC2)nc2ncnn12)c1ccc(Cl)cc1Cl` [Example 10, 5-((R)-1-cyclopentyl-[3,4′-bipiperidin]-1′-yl)-N-((R)-1-(2,4-dichlorophenyl)ethyl)-[1,2,4]triazolo[1,5-a]pyrimidin-7-amine], the IC50 was under 100 nM.
`Cc1cc(Cl)ccc1[C@@H](C)Nc1cc(N2CCC([C@H]3CCCN([C@H]4C[C@](C)(C(=O)O)C4)C3)CC2)nc2ccnn12` [Example 32, (1R,3r)-3-((R)-1′-(7-(((R)-1-(4-chloro-2-methylphenyl)ethyl)amino)pyrazolo[1,5-a]pyrimidin-5-yl)-[3,4′-bipiperidin]-1-yl)-1-methylcyclobutane-1-carboxylic acid]: the IC50 is under 100 nM.
On to `C[C@@H](Nc1cc(N2CCC([C@H]3CCCN(CCS(C)(=O)=O)C3)CC2)nc2ncnn12)c1ccc(Cl)cc1Cl` [Example 12, N-((R)-1-(2,4-dichlorophenyl)ethyl)-5-((R)-1-(2-(methylsulfonyl)ethyl)-[3,4′-bipiperidin]-1′-yl)-[1,2,4]triazolo[1,5-a]pyrimidin-7-amine], for which the IC50 is under 100 nM.
For `C[C@@H](Nc1cc(N2CCC([C@H]3CCCN(C4CCOCC4)C3)CC2)nc2ncnn12)c1ccc(Cl)cc1Cl` [Example 6, N-((R)-1-(2,4-dichlorophenyl)ethyl)-5-((R)-1-(tetrahydro-2H-pyran-4-yl)-[3,4′-bipiperidin]-1′-yl)-[1,2,4]triazolo[1,5-a]pyrimidin-7-amine], the concentration for half-maximal inhibition (IC50) is under 100 nM.
On to `CNC(=O)CCN1CCC[C@H](C2CCN(c3cc(N[C@H](C)c4ccc(Cl)cc4Cl)n4ncnc4n3)CC2)C1` [Example 17, 3-((R)-1′-(7-(((R)-1-(2,4-dichlorophenyl)ethyl)amino)-[1,2,4]triazolo[1,5-a]pyrimidin-5-yl)-[3,4′-bipiperidin]-1-yl)-N-methylpropanamide], for which the half-inhibitory concentration (IC50) was under 100 nM.
For `Cc1cc(F)ccc1[C@@H](C)Nc1cc(N2CCC([C@H]3CCCN([C@H]4C[C@](C)(C(=O)O)C4)C3)CC2)nc2ncnn12` [Example 28, (1R,3r)-3-((R)-1′-(7-(((R)-1-(4-fluoro-2-methylphenyl)ethyl)amino)-[1,2,4]triazolo[1,5-a]pyrimidin-5-yl)-[3,4′-bipiperidin]-1-yl)-1-methylcyclobutane-1-carboxylic acid], the IC50 was in the range of 100 to 500 nM.
As for `C[C@@H](Nc1cc(N2CCC(C3CCCN(CCO)C3)C2)nc2ncnn12)c1ccc(Cl)cc1Cl` (single isomer, unassigned) [Example 23a], the 50% inhibitory concentration (IC50) was under 100 nM.
`C[C@@H](Nc1cc(N2CCC([C@H]3CCCN(C)C3)CC2)nc2ncnn12)c1ccc(Cl)cc1Cl` [Example 9, N-((R)-1-(2,4-dichlorophenyl)ethyl)-5-((R)-1-methyl-[3,4′-bipiperidin]-1′-yl)-[1,2,4]triazolo[1,5-a]pyrimidin-7-amine]: the half-inhibitory concentration (IC50) was under 100 nM.
Next, `C[C@@H](Nc1cc(N2CCC([C@H]3CCCN([C@H]4C[C@](C)(C(=O)O)C4)C3)CC2)nc2nccn12)c1ccc(Cl)cc1Cl` [Example 36, (1R,3r)-3-((R)-1′-(5-(((R)-1-(2,4-dichlorophenyl)ethyl)amino)imidazo[1,2-a]pyrimidin-7-yl)-[3,4′-bipiperidin]-1-yl)-1-methylcyclobutane-1-carboxylic acid]: under 100 nM.
